Assay results as given in ChEMBL document CHEMBL5325436, “Discovery of ML210-Based glutathione peroxidase 4 (GPX4) degrader inducing ferroptosis of human cancer cells” (Eur J Med Chem, 2023).
pEC50, pIC50: −log10 of the molar value. Values belong to the compound of their own block, whether it stands above or below them. Active and inactive are the calls of the source. No cut-off for these calls is given here.

Key:
[1] = molecular target: T1, Protein cereblon/Phospholipid hydroperoxide glutathione peroxidase GPX4 (Homo sapiens) (UniProt Q96SW2+P36969); test: PROTAC activity at CRBN/GPX4 in human HT-1080 cells assessed as induction of GPX4 degradation at 1 uM incubated for 24 hrs by Western blot analysis relative to control; format: cell-based
[2] = molecular target: T1, Protein cereblon/Phospholipid hydroperoxide glutathione peroxidase GPX4 (Homo sapiens); test: PROTAC activity at CRBN/GPX4 in human HT-1080 cells assessed as induction of GPX4 degradation at 0.1 uM incubated for 24 hrs by Western blot analysis relative to control; format: cell-based
[3] = molecular target: T1, Protein cereblon/Phospholipid hydroperoxide glutathione peroxidase GPX4 (Homo sapiens); test: (§1) PROTAC activity at CRBN/GPX4 in human HT-1080 cells assessed as induction of GPX4 degradation incubated for 24 hrs by Western blot analysis; format: cell-based
[4] = molecular target: Protein cereblon/Phospholipid hydroperoxide glutathione peroxidase GPX4 (Homo sapiens, UniProt P36969+Q96SW2); test: as §1; format: cell-based
[5] = molecular target: T1, Protein cereblon/Phospholipid hydroperoxide glutathione peroxidase GPX4 (Homo sapiens); test: PROTAC activity at CRBN/GPX4 in human HT-1080 cells assessed as induction of GPX4 degradation at 1 uM by Western blot analysis; format: cell-based; settings: time <= 24.0 hrs, TDE = time-dependent effect
[6] = molecular target: T1, Protein cereblon/Phospholipid hydroperoxide glutathione peroxidase GPX4 (Homo sapiens); test: PROTAC activity at CRBN/GPX4 in human HT-1080 cells assessed as induction of GPX4 degradation at 0.3 uM incubated for 24 hrs by Western blot analysis relative to control; format: cell-based
[7] = molecular target: T1, Protein cereblon/Phospholipid hydroperoxide glutathione peroxidase GPX4 (Homo sapiens); test: PROTAC activity at CRBN/GPX4 in human HT-1080 cells assessed as induction of GPX4 degradation at 0.1 uM incubated for 12 hrs by Western blot analysis relative to control; format: cell-based
[8] = molecular target: T1, Protein cereblon/Phospholipid hydroperoxide glutathione peroxidase GPX4 (Homo sapiens); test: Potency index, ratio of […] EC50 to test compound EC50 for PROTAC activity at CRBN/GPX4 in human HT-1080 cells; format: cell-based
HT-1080 [9] = test: Antiproliferative activity against human HT-1080 cells assessed as reduction in cell viability incubated for 24 hrs by MTT assay; format: functional, cell-based; settings: HT-1080, 24 h
Calu-1 = test: Antiproliferative activity against human Calu-1 cells assessed as reduction in cell viability incubated for 24 hrs by MTT assay; format: functional, cell-based; settings: Calu-1, 24 h
A-375 = test: Antiproliferative activity against human A-375 cells assessed as reduction in cell viability incubated for 24 hrs by MTT assay; format: functional, cell-based; settings: A-375, 24 h
[10] = Cytotoxicity against HEK293T cells assessed as reduction in cell viability measured after 24 hrs by MTT assay; format: toxicity, cell-based, HEK-293T; settings: human
[11] = Potency index, ratio of test compound IC50 to ML210 IC50 for cytotoxicity against HEK293T cells; format: toxicity, cell-based, HEK-293T; settings: human, read-out: Ratio IC50
Mus musculus = test: In vivo PROTAC activity at CRBN/GPX4 in human HT-1080 cells xenografted in Balb/c nude mouse assessed as reduction in GPX4 level in tumor at 20 mg/kg,iv administered as single dose by immunoblotting analysis; format: functional, organism-based; settings: time 6-48 hrs, TDE = time-dependent effect
[12] = Toxicity in Balb/c nude mouse xenografted with human HT-1080 cells assessed as body weight loss at 5 to 40 mg/kg, iv administered once every two days for 10 days; format: organism-based; settings: in vivo, 240 h, dose 5-40 mg/kg, time 10 day
[13] = molecular target: T1, Protein cereblon/Phospholipid hydroperoxide glutathione peroxidase GPX4 (Homo sapiens); test: PROTAC activity at CRBN/GPX4 in human HT-1080 cells assessed as induction of GPX4 degradation in the presence of ML210 by ligand competition assay; format: cell-based
[14] = molecular target: T1, Protein cereblon/Phospholipid hydroperoxide glutathione peroxidase GPX4 (Homo sapiens); test: PROTAC activity at CRBN/GPX4 in human HT-1080 cells assessed as induction of GPX4 degradation in the presence of lenalidomide by ligand competition assay; format: cell-based
[15] = molecular target: T1, Protein cereblon/Phospholipid hydroperoxide glutathione peroxidase GPX4 (Homo sapiens); test: PROTAC activity at CRBN/GPX4 in human HT-1080 cells assessed as induction of GPX4 degradation at 0.1 uM preincubated with MG132 and Baf-A1 for 2 hrs followed by compound addition and measured after 12 hrs by Western blot analysis; format: cell-based
HT-1080 [16] = test: Induction of ferroptosis in human HT-1080 cells assessed as cell death at 0.3 uM preincubated with liproxstin-1 for 2 hrs followed by compound addition and measured after 12 hrs by fluorescence intensity based flow cytometric analysis; format: functional
HT-1080 [17] = test: Induction of ferroptosis in human HT-1080 cells assessed as increase in ROS accumulation at 0.3 uM measured upto 12 hrs by fluorescence intensity based flow cytometric analysis; format: functional, cell-based
HT-1080 [18] = test: Antiproliferative activity against human HT-1080 cells assessed as reduction in cell viability at 10 uM incubated for 24 hrs in the presence of liproxstin-1 by MTT assay; format: functional, cell-based
[19] = Toxicity in Balb/c nude mouse xenografted with human HT-1080 cells assessed as body weight loss at 3 mg/kg, iv administered once every two days for 10 days; format: organism-based; settings: in vivo, 240 h, time 10 day
HT-1080 [20] = test: Induction of ferroptosis in human HT-1080 cells assessed as increase in ROS accumulation at 0.3 uM measured at 6 to 12 hrs by fluorescence intensity based flow cytometric analysis; format: functional, cell-based; settings: time 6-12 hrs
[21] = molecular target: T2, Phospholipid hydroperoxide glutathione peroxidase GPX4 (Homo sapiens, UniProt P36969); test: Induction of GPX4 degradation in human HT-1080 cells measured after 24 hrs; format: cell-based
T2 sequence (P36969 whole entry): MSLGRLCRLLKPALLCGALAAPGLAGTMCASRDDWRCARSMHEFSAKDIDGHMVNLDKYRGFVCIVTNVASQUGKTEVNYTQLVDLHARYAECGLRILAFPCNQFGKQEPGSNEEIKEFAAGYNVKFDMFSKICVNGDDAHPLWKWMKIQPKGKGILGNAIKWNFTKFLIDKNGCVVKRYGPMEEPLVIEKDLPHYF

[22] = molecular target: T3, Phospholipid hydroperoxide glutathione peroxidase GPX4 (Homo sapiens) (UniProt P36969); test: Induction of GPX4 degradation in human HT-1080 cells measured after 12 hrs relative to control; format: cell-based
T3 sequence (whole entry): T2 sequence (P36969 whole entry)

[23] = molecular target: T3, Phospholipid hydroperoxide glutathione peroxidase GPX4 (Homo sapiens); test: Induction of GPX4 degradation in human HT-1080 cells assessed as reduction in GPX4 protein level measured after 6 hrs; format: cell-based

Compound: Cc1onc(C(=O)N2CCN(C(c3ccc(Cl)cc3)c3ccc(OCC(=O)N4CCN(CCCCCCCCCCCCCCNc5cccc6c5CN(C5CCC(=O)NC5=O)C6=O)CC4)cc3)CC2)c1[N+](=O)[O-] (centres undefined)
Activity [1]: < 5%

Compound: Cc1onc(C(=O)N2CCN(C(c3ccc(Cl)cc3)c3ccc(OCC(=O)N4CCN(CCCCCCCCCCNc5cccc6c5CN(C5CCC(=O)NC5=O)C6=O)CC4)cc3)CC2)c1[N+](=O)[O-] (centres undefined)
Activity [1]: 43%

Compound: Cc1onc(C(=O)N2CCN(C(c3ccc(Cl)cc3)c3ccc(OCC(=O)N4CCC(CN5CCN(CCCCNc6cccc7c6C(=O)N(C6CCC(=O)NC6=O)C7=O)CC5)CC4)cc3)CC2)c1[N+](=O)[O-] (centres undefined)
Activity [1]: 70% | Activity [2]: 42%

Compound: Cc1onc(C(=O)N2CCN(C(c3ccc(Cl)cc3)c3ccc(OCC(=O)N4CCN(CCCCCCCCNc5cccc6c5CN(C5CCC(=O)NC5=O)C6=O)CC4)cc3)CC2)c1[N+](=O)[O-] (centres undefined)
Activity [1]: 36%

Compound: Cc1onc(C(=O)N2CCN(C(c3ccc(Cl)cc3)c3ccc(OCC(=O)N4CCC(CN5CCC(CN6CCC(Nc7cccc8c7C(=O)N(C7CCC(=O)NC7=O)C8=O)CC6)CC5)CC4)cc3)CC2)c1[N+](=O)[O-] (centres undefined)
Activity [1]: 25% | pIC50 (HT-1080 [9]): 5.92

Compound: Cc1onc(C(=O)N2CCN(C(c3ccc(Cl)cc3)c3ccc(Cl)cc3)CC2)c1[N+](=O)[O-]
pIC50 (HT-1080 [9]): 7.00 | pIC50 (Calu-1): 6.05 | pIC50 (A-375): 6.52 | IC50 at 24 h [10]: 200 nM | Activity [19]: Toxic | Activity (HT-1080 [20]): inactive | pEC50 [21]: 6.19 | Activity [22]: > 60% | Activity [23]: Active

Compound: Cc1onc(C(=O)N2CCN(C(c3ccc(Cl)cc3)c3ccc(OCC(=O)N4CCC(CN5CCN(CCCCCNc6cccc7c6C(=O)N(C6CCC(=O)NC6=O)C7=O)CC5)CC4)cc3)CC2)c1[N+](=O)[O-] (centres undefined)
Activity [1]: > 80% | Activity [2]: 33%

Compound: Cc1onc(C(=O)N2CCN(C(c3ccc(Cl)cc3)c3ccc(OCC(=O)N4CCN(CCCCCCCCCCCNc5cccc6c5CN(C5CCC(=O)NC5=O)C6=O)CC4)cc3)CC2)c1[N+](=O)[O-] (centres undefined)
Activity [1]: 54%

Compound: Cc1onc(C(=O)N2CCN(C(c3ccc(Cl)cc3)c3ccc(OCC(=O)N4CCN(CCCCCCCCCNc5cccc6c5CN(C5CCC(=O)NC5=O)C6=O)CC4)cc3)CC2)c1[N+](=O)[O-] (centres undefined)
Activity [1]: 40% | Activity [3]: Dose-Dependent Effect | pEC50 [4]: 6.40 | Activity [5]: Tde | pIC50 (HT-1080 [9]): 6.52

Compound: Cc1onc(C(=O)N2CCN(C(c3ccc(Cl)cc3)c3ccc(OCC(=O)N4CCN(CCCCCCCCCCCCNc5cccc6c5CN(C5CCC(=O)NC5=O)C6=O)CC4)cc3)CC2)c1[N+](=O)[O-] (centres undefined)
Activity [1]: 32%

Second part, led by results:

Activity [1]: > 80% | Activity [2]: 50%
Compound: Cc1onc(C(=O)N2CCN(C(c3ccc(Cl)cc3)c3ccc(OCC(=O)N4CCC(CN5CCN(CCCCCCNc6cccc7c6C(=O)N(C6CCC(=O)NC6=O)C7=O)CC5)CC4)cc3)CC2)c1[N+](=O)[O-] (centres undefined)

Activity [1]: 36%
Compound: Cc1onc(C(=O)N2CCN(C(c3ccc(Cl)cc3)c3ccc(OCC(=O)N4CCN(CCCCCCCCCCCCCNc5cccc6c5CN(C5CCC(=O)NC5=O)C6=O)CC4)cc3)CC2)c1[N+](=O)[O-] (centres undefined)

Activity [1]: > 78% | Activity [2]: 82% | Activity [3]: Dose-Dependent Effect | pEC50 [4]: 7.52 | Activity [5]: Tde | Activity [6]: 100% | Activity [7]: > 80% | Ratio EC50 [8]: 22 | pIC50 (HT-1080 [9]): 7.00 | pIC50 (Calu-1): 6.52 | pIC50 (A-375): 6.70 | Activity [13]: Active | Activity [14]: Active | Activity [15]: inactive
Compound: Cc1onc(C(=O)N2CCN(C(c3ccc(Cl)cc3)c3ccc(OCC(=O)N4CCC(CN5CCN(CCCNc6cccc7c6C(=O)N(C6CCC(=O)NC6=O)C7=O)CC5)CC4)cc3)CC2)c1[N+](=O)[O-] (centres undefined)
IC50 at 24 h [10]: 1100 nM | selectivity ratio [11]: 5 | Activity (Mus musculus): Tde | Activity [12]: Non-Toxic | Activity (HT-1080 [16]): inactive | Activity (HT-1080 [17]): Active | Activity (HT-1080 [18]): inactive

Activity [1]: 30% | pIC50 (HT-1080 [9]): 6.00
Compound: Cc1onc(C(=O)N2CCN(C(c3ccc(Cl)cc3)c3ccc(OCC(=O)N4CCC(CN5CCC(CN6CCN(c7cccc8c7C(=O)N(C7CCC(=O)NC7=O)C8=O)CC6)CC5)CC4)cc3)CC2)c1[N+](=O)[O-] (centres undefined)

Activity [1]: > 80% | Activity [2]: 36%
Compound: Cc1onc(C(=O)N2CCN(C(c3ccc(Cl)cc3)c3ccc(OCC(=O)N4CCC(CN5CCN(CCNc6cccc7c6C(=O)N(C6CCC(=O)NC6=O)C7=O)CC5)CC4)cc3)CC2)c1[N+](=O)[O-] (centres undefined)

Activity [1]: 13%
Compound: Cc1onc(C(=O)N2CCN(C(c3ccc(Cl)cc3)c3ccc(OCC(=O)N4CCN(CCCCCCCNc5cccc6c5CN(C5CCC(=O)NC5=O)C6=O)CC4)cc3)CC2)c1[N+](=O)[O-] (centres undefined)
